Key:
human FPR2 = target: T1, human FPR2 (Homo sapiens, UniProt P25090); test: FPR2 cyclic adenosine monophosphate (cAMP) assay; assay type: cell-based; conditions: CHO cells overexpressing human FPR2; forskolin 5 μM; inhibition of cAMP production; HTRF; read-out: hFPR2 cAMP2 EC50
T1 sequence (P25090 1-351): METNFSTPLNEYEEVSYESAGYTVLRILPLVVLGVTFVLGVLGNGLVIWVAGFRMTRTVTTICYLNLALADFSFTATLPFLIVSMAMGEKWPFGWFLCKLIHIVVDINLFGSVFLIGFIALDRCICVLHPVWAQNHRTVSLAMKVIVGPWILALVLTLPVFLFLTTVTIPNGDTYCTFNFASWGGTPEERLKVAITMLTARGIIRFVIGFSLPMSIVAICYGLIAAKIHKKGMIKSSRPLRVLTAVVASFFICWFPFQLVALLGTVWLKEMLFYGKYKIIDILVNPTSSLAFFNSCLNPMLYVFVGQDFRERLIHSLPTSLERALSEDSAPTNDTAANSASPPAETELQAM
Protocol: (§1) FPR2 and FPR1 Cyclic Adenosine Monophosphate (cAMP) Assays. A mixture of forskolin (5 μM final for FPR2 or 10 μM final for FPR1) and IBMX (200 μM final) were added to 384-well Proxiplates (Perkin-Elmer) pre-dotted with test compounds in DMSO (1% final) at final concentrations in the range of 0.020 nM to 100 μM. Chinese Hamster Ovary cells (CHO) overexpressing human FPR1 or human FPR2 receptors were cultured in F-12 (Ham's) medium supplemented with 10% qualified FBS, 250 μg/ml zeocin and 300 μg/ml hygromycin (Life Technologies). Reactions were initiated by adding 2,000 human FPR2 cells per well or 4,000 human FPR1 cells per well in Dulbecco's PBS (with calcium and magnesium) (Life Technologies) supplemented with 0.1% BSA (Perkin-Elmer). The reaction mixtures were incubated for 30 min at room temperature. The level of intracellular cAMP was determined using the HTRF HiRange cAMP assay reagent kit (Cisbio) according to manufacturer's instruction. Solutions of cryptate conjugated anti-cAMP and d2 flurorophore-labelled cAMP were made in a supplied lysis buffer separately. Upon completion of the reaction, the cells were lysed with equal volume of the d2-cAMP solution and anti-cAMP solution. After a 1-h room temperature incubation, time-resolved fluorescence intensity was measured using the Envision (Perkin-Elmer) at 400 nm excitation and dual emission at 590 nm and 665 nm. A calibration curve was constructed with an external cAMP standard at concentrations ranging from 1 μM to 0.1 μM by plotting the fluorescent intensity ratio from 665 nm emission to the intensity from the 590 nm emission against cAMP concentrations. The potency and activity of a compound to inhibit cAMP production was then determined by fitting to a 4-parametric logistic equation from a plot of cAMP level versus compound concentrations.

human FPR1 = target: T2, human FPR1 (Homo sapiens, UniProt P21462); test: FPR1 cyclic adenosine monophosphate (cAMP) assay; assay type: cell-based; conditions: CHO cells overexpressing human FPR1; forskolin 10 μM; inhibition of cAMP production; HTRF; read-out: hFPR1 cAMP2 EC50
T2 sequence (P21462 1-350): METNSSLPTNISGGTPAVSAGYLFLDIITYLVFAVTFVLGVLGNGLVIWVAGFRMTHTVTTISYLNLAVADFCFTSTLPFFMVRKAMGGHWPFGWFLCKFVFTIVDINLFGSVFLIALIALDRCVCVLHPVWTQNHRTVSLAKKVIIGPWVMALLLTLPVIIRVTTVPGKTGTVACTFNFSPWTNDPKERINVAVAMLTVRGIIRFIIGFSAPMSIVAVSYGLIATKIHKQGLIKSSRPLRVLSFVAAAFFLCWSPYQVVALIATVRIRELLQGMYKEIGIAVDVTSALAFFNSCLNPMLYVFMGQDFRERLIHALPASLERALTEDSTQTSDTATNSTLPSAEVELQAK
Protocol: as §1

EC50 (human FPR2) [nM]	EC50 (human FPR1) [nM]	Compound
4	200	COc1cc(F)c(-n2cc(-c3ccccc3)nc2NC(=O)c2ccc(OC(F)F)cc2)c(F)c1 [Example 1, N-[1-(2,6-Difluoro-4-methoxyphenyl)-4-phenyl-1H-imidazol-2-yl]-4-(difluoromethoxy)benzamide]
8	88	COc1cccc(-c2cn(-c3c(F)cc(OC)cc3F)c(NC(=O)c3ccc(OC(F)F)cc3)n2)c1 [Example 3, N-[1-(2,6-Difluoro-4-methoxyphenyl)-4-(3-methoxyphenyl)-1H-imidazol-2-yl]-4-(difluoromethoxy)benzamide]
11	400	COc1cc(F)c(-n2cc(-c3ccc(F)cc3)nc2NC(=O)c2ccc(OC(F)F)cc2)c(F)c1 [Example 4, N-[1-(2,6-Difluoro-4-methoxyphenyl)-4-(4-fluorophenyl)-1H-imidazol-2-yl]-4-(difluoromethoxy)benzamide]
47	140	COc1cc(F)c(-n2cc(-c3ccc(Cl)c(C)c3)nc2NC(=O)c2ccc(OC(F)F)cc2)c(F)c1 [Example 5, N-[4-(4-Chloro-3-methylphenyl)-1-(2,6-difluoro-4-methoxyphenyl)-1H-imidazol-2-yl]-4-(difluoromethoxy)benzamide]
220	460	COc1cc(F)c(-n2cc(-c3ccc4ccccc4c3)nc2NC(=O)c2ccc(OC(F)F)cc2)c(F)c1 [Example 9, N-[1-(2,6-Difluoro-4-methoxyphenyl)-4-(naphthalen-2-yl)-1H-imidazol-2-yl]-4-(difluoromethoxy)benzamide]
7	200	COc1cc(F)c(-n2cc(-c3cccc(F)c3)nc2NC(=O)c2ccc(OC(F)F)cc2)c(F)c1 [Example 10, N-[1-(2,6-Difluoro-4-methoxyphenyl)-4-(3-fluorophenyl)-1H-imidazol-2-yl]-4-(difluoromethoxy)benzamide]
24	140	COc1cc(F)c(-n2cc(-c3ccc(Cl)cc3)nc2NC(=O)c2ccc(OC(F)F)cc2)c(F)c1 [Example 11, N-[4-(4-Chlorophenyl)-1-(2,6-difluoro-4-methoxyphenyl)-1H-imidazol-2-yl]-4-(difluoromethoxy)benzamide]
15	450	COc1cc(F)c(-n2cc(-c3cccc(Cl)c3)nc2NC(=O)c2ccc(OC(F)F)cc2)c(F)c1 [Example 12, N-[4-(3-Chlorophenyl)-1-(2,6-difluoro-4-methoxyphenyl)-1H-imidazol-2-yl]-4-(difluoromethoxy)benzamide]
39	160	COc1ccc(-c2cn(-c3c(F)cc(OC)cc3F)c(NC(=O)c3ccc(OC(F)F)cc3)n2)cc1 [Example 14, N-[1-(2,6-Difluoro-4-methoxyphenyl)-4-(4-methoxyphenyl)-1H-imidazol-2-yl]-4-(difluoromethoxy)benzamide]
23	130	COc1cc(F)c(-n2cc(-c3ccc(C)cc3)nc2NC(=O)c2ccc(OC(F)F)cc2)c(F)c1 [Example 15, N-[1-(2,6-Difluoro-4-methoxyphenyl)-4-(4-methylphenyl)-1H-imidazol-2-yl]-4-(difluoromethoxy)benzamide]
27	230	COc1cc(F)c(-n2cc(-c3ccc(C#N)cc3)nc2NC(=O)c2ccc(OC(F)F)cc2)c(F)c1 [Example 16, N-[4-(4-Cyanophenyl)-1-(2,6-difluoro-4-methoxyphenyl)-1H-imidazol-2-yl]-4-(difluoromethoxy)benzamide]
5	46	COc1cc(F)c(-n2cc(-c3cccc(C#N)c3)nc2NC(=O)c2ccc(OC(F)F)cc2)c(F)c1 [Example 17, N-[4-(3-Cyanophenyl)-1-(2,6-difluoro-4-methoxyphenyl)-1H-imidazol-2-yl]-4-(difluoromethoxy)benzamide]
51	400	COc1cc(F)c(-n2cc(-c3ccc(Cl)c(Cl)c3)nc2NC(=O)c2ccc(OC(F)F)cc2)c(F)c1 [Example 18, N-[4-(3,4-Dichlorophenyl)-1-(2,6-difluoro-4-methoxyphenyl)-1H-imidazol-2-yl]-4-(difluoromethoxy)benzamide]

Further lines, the molecule ahead of its results:

Compound	EC50 (human FPR2) [nM]	EC50 (human FPR1) [nM]
COc1ccc(-n2cc(-c3ccccc3)nc2NC(=O)c2ccc(OC(F)F)cc2)cc1 [Example 2, 4-(Difluoromethoxy)-N-[1-(4-methoxyphenyl)-4-phenyl-1H-imidazol-2-yl]benzamide]	3	38
COc1cc(F)c(-n2cc(-c3ccc(C(F)(F)F)cc3)nc2NC(=O)c2ccc(OC(F)F)cc2)c(F)c1 [Example 6, N-[1-(2,6-Difluoro-4-methoxyphenyl)-4-[4-(trifluoromethyl)phenyl]-1H-imidazol-2-yl]-4-(difluoromethoxy)benzamide]	76	120
COc1cc(F)c(-n2cc(-c3ccc(OC(F)F)cc3)nc2NC(=O)c2ccc(OC(F)F)cc2)c(F)c1 [Example 7, N-[1-(2,6-Difluoro-4-methoxyphenyl)-4-[4-(difluoromethoxy)phenyl]-1H-imidazol-2-yl]-4-(difluoromethoxy)benzamide]	33	190
COc1cc(F)c(-n2c(NC(=O)c3ccc(OC(F)F)cc3)nc(-c3ccccc3)c2C)c(F)c1 [Example 8, N-[1-(2,6-Difluoro-4-methoxyphenyl)-5-methyl-4-phenyl-1H-imidazol-2-yl]-4-(difluoromethoxy)benzamide]	8	230
COc1cc(F)c(-n2c(NC(=O)c3ccc(OC(F)F)cc3)nc(-c3ccc(Cl)cc3)c2C)c(F)c1 [Example 13, N-[4-(4-Chlorophenyl)-1-(2,6-difluoro-4 methoxyphenyl)-5-methyl-1H-imidazol-2-yl]-4-(difluoromethoxy)benzamide]	53	550
COc1ccc(-n2cc(-c3ccc4c(c3)CCO4)nc2NC(=O)c2ccc(OC(F)F)cc2)cc1 [Example 19, 4-(Difluoromethoxy)-N-[4-(2,3-dihydro-1-benzofuran-5-yl)-1-(4-methoxyphenyl)-1H-imidazol-2-yl]benzamide]	28	93
COc1ccc(-n2cc(-c3ccnc(Cl)c3)nc2NC(=O)c2ccc(OC(F)F)cc2)cc1 [Example 20, N-[4-(2-Chloropyridin-4-yl)-1-(4-methoxyphenyl)-1H-imidazol-2-yl]-4-(difluoromethoxy)benzamide]	5	19
COc1ccc(-n2cc(-c3ccc(F)cc3F)nc2NC(=O)c2ccc(OC(F)F)cc2)cc1 [Example 21, 4-(Difluoromethoxy)-N-[4-(2,4-difluorophenyl)-1-(4-methoxyphenyl)-1H-imidazol-2-yl]benzamide]	29	76
COc1ccc(-n2cc(-c3ccc4sccc4c3)nc2NC(=O)c2ccc(OC(F)F)cc2)cc1 [Example 22, N-[4-(1-Benzothiophen-5-yl)-1-(4-methoxyphenyl)-1H-imidazol-2-yl]-4-(difluoromethoxy)benzamide]	86	140
COc1ccc(-n2cc(-c3nc4ccccc4s3)nc2NC(=O)c2ccc(OC(F)F)cc2)cc1 [Example 23, N-[4-(1,3-Benzothiazol-2-yl)-1-(4-methoxyphenyl)-1H-imidazol-2-yl]-4-(difluoromethoxy)benzamide]	28	44
COc1ccc(-n2cc(-c3nccs3)nc2NC(=O)c2ccc(OC(F)F)cc2)cc1 [Example 24, 4-(Difluoromethoxy)-N-[1-(4-methoxyphenyl)-4-(1,3-thiazol-2-yl)-1H-imidazol-2-yl]benzamide]	9	110

From patent US20230373930A1, “AMINOIMIDAZOLE FPR2 AGONISTS” (BRISTOL-MYERS SQUIBB COMPANY, priority 2020, published 2023)
